Laboratory results reported in article PMC2994747, “Molecular Characterization of c-Abl/c-Src Kinase Inhibitors Targeted against Murine Tumour Progenitor Cells that Express Stem Cell Markers” (PLoS ONE, 2010).
Like-named read-outs stand apart in the source and are kept apart here.

What was measured:
GammaD12 [1] = assay: MTS cell viability assay; format: cell-based, mouse
Description: (§1) Three human and eleven murine cancer cell lines were used. The human NSCLC cell line A549 (ACC 107) and the human colorectal carcinoma cell line CaCo2 (ACC 169) were obtained from Deutsche Sammlung von Mikroorganismen und Zellkulturen (DSMZ, Braunschweig, Germany). The human hepatocellular carcinoma cell line HepG2 (HB-8065) was obtained from American Type Culture Collection (Manassas, VA, USA). The 11 murine NSCLC cell lines were established as described recently. Cells were grown in monolayer cultures in DMEM containing 10% foetal calf serum, 4 mmol/l L-glutamine and 2% Penicillin/Streptomycin at 37°C in a humidified atmosphere of 95% air and 5% CO2.
(§2) Cell culture viability was monitored by CellTiter96® AQueous One Solution Cell Proliferation Assay (Promega GmbH, Mannheim, Germany). The cells were seeded in triplicates in 96-well microtitre plates and treated with the dual kinase inhibitors or vehicle (0.2% DMSO). After 24 h or 96 h of treatment the MTS tetrazolium reagent was added to the cells and incubated for 1 h. Absorbance at 490 nm was assayed with a Victor3 Wallac 1420 Multilabel counter (PerkinElmer, Waltham, MA, USA).

A2C12 [2] = assay: MTS cell viability assay; format: cell-based, mouse
Description: as §1, §2

GammaA3 [3] = assay: MTS cell viability assay; format: cell-based, mouse
Description: as §1, §2

BetaD5 [4] = assay: MTS cell viability assay; format: cell-based, mouse
Description: as §1, §2

CaCo2 [5] = assay: MTS cell viability assay; format: cell-based, human
Description: as §1, §2

HepG2 [6] = assay: MTS cell viability assay; format: cell-based, human
Description: as §1, §2

A549 [7] = assay: MTS cell viability assay; format: cell-based, human
Description: as §1, §2

GammaD12 [8] = assay: Cell cycle analysis by flow cytometry; format: cell-based, mouse; details: IC50 concentration, 96 h
Description: (§3) CycleTEST™ PLUS DNA Reagent Kit (Becton Dickinson GmbH, Heidelberg, Germany) for cell cycle analysis was used, according to the instructions of the manufacturer. Briefly, the cells were harvested with trypsin, washed with PBS, and resuspended in CycleTEST Buffer. The cells were centrifuged and resuspended in solution A. After incubation for 10 min at room temperature, solution B was added and incubated. After adding solution C, the samples were incubated at 4°C protected from light. The samples were stored on ice and protected from light until analysis by FACScan flow cytometer (Becton Dickinson GmbH, Heidelberg, Germany).

A2C12 [9] = assay: Cell cycle analysis by flow cytometry; format: cell-based, mouse; details: IC50 concentration, 96 h
Description: as §3

GammaA3 [10] = assay: Cell cycle analysis by flow cytometry; format: cell-based, mouse; details: IC50 concentration
Description: as §3

BetaD5 [11] = assay: Cell cycle analysis by flow cytometry; format: cell-based, mouse; details: IC50 concentration, 96 h
Description: as §3

CaCo2 [12] = assay: Cell cycle analysis by flow cytometry; format: cell-based, human; details: IC50 concentration, 96 h
Description: as §3

A549 [13] = assay: Cell cycle analysis by flow cytometry; format: cell-based, human; details: IC50 concentration, 96 h
Description: as §3

HepG2 [14] = assay: Cell cycle analysis by flow cytometry; format: cell-based, human; details: IC50 concentration, 96 h
Description: as §3

[15] = Mus musculus, 24 h, read-out: Calculated IC50 after single treatment for 24 h
[16] = Mus musculus, 96 h, read-out: Calculated IC50 after daily treatment for 96 h
[17] = 96 h, read-out: Calculated IC50 after daily treatment for 96 h
[18] = MTS, 24 h, read-out: Calculated IC50 after single treatment for 24 h
[19] = MTS, 96 h, read-out: Calculated IC50 after daily treatment for 96 h
[20] = 24 h, read-out: Calculated IC50 after single treatment for 24 h
[21] = daily treatment 96 h, vs DMSO 0.2%

Structure (SMILES) | IC50 (A549 [7]; [17]) | IC50 (GammaD12 [1]; [18]) | IC50 (GammaD12 [1]; [19]) | IC50 (A2C12 [2]; [20]) | IC50 (A2C12 [2]; [17]) | IC50 (GammaA3 [3]; [20]) | IC50 (GammaA3 [3]; [17]) | IC50 (BetaD5 [4]; [20]) | IC50 (BetaD5 [4]; [17]) | IC50 (CaCo2 [5]; [20]) | IC50 (CaCo2 [5]; [17]) | IC50 (HepG2 [6]; [20]) | IC50 (HepG2 [6]; [17]) | IC50 (A549 [7]; [20]) | Cells in G1 phase (GammaD12 [8]) | Cells in G2 phase (GammaD12 [8]) | Cells in S phase (GammaD12 [8]) | Cells in G1 phase (A2C12 [9]) | Cells in G2 phase (A2C12 [9]) | Cells in S phase (A2C12 [9]) | other results
Cc1nc(Nc2ncc(C(=O)Nc3c(C)cccc3Cl)s2)cc(N2CCN(CCO)CC2)n1 [Dasatinib, reference compound] | 5.2 ± 2.2 µM |  |  |  |  |  |  |  |  |  |  |  |  |  |  |  |  |  |  |  | IC50 (GammaD12 [1]; Mus musculus, 96 h, read-out: IC50 (MTS) after treatment for 96 h): 0.8 µM; IC50 (GammaD12 [1]; Mus musculus, MTS, 24 h, read-out: Calculated IC50 after single treatment for 24 h): 2.6 ± 1 µM; IC50 (A2C12 [2]; [15]): 9.8 ± 1.5 µM; IC50 (A2C12 [2]; [16]): 10.3 ± 1.6 µM; IC50 (GammaA3 [3]; [15]): 1.18 ± 0.1 µM; IC50 (GammaA3 [3]; [16]): 0.32 ± 0.07 µM; IC50 (BetaD5 [4]; [15]): 5.2 ± 0.6 µM; IC50 (BetaD5 [4]; [16]): 0.84 ± 0.05 µM; IC50 (CaCo2 [5]; Homo sapiens, Caco-2, 24 h, read-out: Calculated IC50 after single treatment for 24 h): > 100 µM; IC50 (CaCo2 [5]; Homo sapiens, Caco-2, 96 h, read-out: Calculated IC50 after daily treatment for 96 h): 0.44 ± 0.25 µM; IC50 (HepG2 [6]; Homo sapiens, 24 h, read-out: Calculated IC50 after single treatment for 24 h): 26.2 ± 2.8 µM; IC50 (HepG2 [6]; Homo sapiens, 96 h, read-out: Calculated IC50 after daily treatment for 96 h): 5 ± 0.82 µM; IC50 (A549 [7]; Homo sapiens, A549, 24 h, 24 h, read-out: Calculated IC50 after single treatment for 24 h): 39.8 ± 5.8 µM; IC50 (A549 [7]; Homo sapiens, A549, 96 h, 96 h, read-out: Calculated IC50 after daily treatment for 96 h): 5 µM
CSc1nc(NCc2ccccc2)c2cnn(CC(Cl)c3ccc(Cl)cc3)c2n1 (centres unmarked) [Si70] | 10.2 ± 0.5 µM | 21.6 ± 1.6 µM | 7.9 ± 3.4 µM | 68.5 ± 16.8 µM | 9.2 ± 0.3 µM | 40.7 ± 6.2 µM | 13.5 ± 1.1 µM | 31 ± 5.1 µM | 11 ± 0.3 µM | 82.1 ± 5.3 µM | 7.6 ± 0.3 µM | 82.1 ± 5.3 µM | > 100 µM | 96 ± 35.1 µM | 43.7% | 7.7% | 48.7% | 63.3% | 10.1% | 26.6% | Cells in G1 phase (GammaA3 [10]; 96 h): 89%; Cells in G2 phase (GammaA3 [10]; 96 h): 8.2%; Cells in S phase (GammaA3 [10]; 96 h): 2.8%; Decrease in the S-phase compared to the vehicle treatment (GammaA3 [10]; [21]): up to 91%; Increase in G0/G1 compared to the vehicle treatment (GammaA3 [10]; [21]): up to 92%; Cells in G1 phase (BetaD5 [11]): 56.6%; Cells in G2 phase (BetaD5 [11]): 25.7%; Cells in S phase (BetaD5 [11]): 17.7%; Cells in G1 phase (CaCo2 [12]): 65.9%; Cells in G2 phase (CaCo2 [12]): 6.8%; Cells in S phase (CaCo2 [12]): 27.3%; Cells in G1 phase (A549 [13]): 77.3%; Cells in G2 phase (A549 [13]): 4.1%; Cells in S phase (A549 [13]): 18.6%
CSc1nc(NCc2ccccc2)c2cnn(CC(Br)c3ccccc3)c2n1 (centres unmarked) [Si81] | 11.2 ± 1 µM | 17.4 ± 2.6 µM | 14.1 ± 0.2 µM | 30.8 ± 2.5 µM | 12.1 ± 2.1 µM | 26.8 ± 1.5 µM | > 20 µM | 20.6 ± 4 µM | 19.5 ± 3.1 µM | 72.9 ± 6.4 µM | 7.5 ± 0.2 µM | 72.9 ± 6.4 µM | 22.6 ± 4.3 µM | > 100 µM | 33.3% | 8.8% | 57.9% | 66.7% | 10.7% | 22.6% | Cells in G1 phase (BetaD5 [11]): 61.9%; Cells in G2 phase (BetaD5 [11]): 22%; Cells in S phase (BetaD5 [11]): 16.1%; Cells in G1 phase (CaCo2 [12]): 58.7%; Cells in G2 phase (CaCo2 [12]): 6.9%; Cells in S phase (CaCo2 [12]): 34.3%; Cells in G1 phase (HepG2 [14]): 58.8%; Cells in G2 phase (HepG2 [14]): 9.5%; Cells in S phase (HepG2 [14]): 31.7%; Cells in G1 phase (A549 [13]): 62.8%; Cells in G2 phase (A549 [13]): 6.3%; Cells in S phase (A549 [13]): 30.9%
CCN(CC)c1nc(SC)nc2c1cnn2CC(Cl)c1ccccc1 (centres unmarked) [Si27] | > 20 µM | > 100 µM | > 20 µM | > 100 µM | > 20 µM | > 100 µM | > 20 µM | > 100 µM | > 20 µM | > 100 µM | > 20 µM | > 100 µM | 16.2 ± 6.3 µM | > 100 µM |  |  |  |  |  |  | 
